Source: patent publication US20250327074A1 (SHAOXING INSTITUTE, ZHEJIANG UNIVERSITY, priority 2024, published 2025)

test system: TCG codon, mammalian cells; assay: TCG codon recoding efficiency of all amino acids (Table 1); assay type: cell-based; conditions: TCG codon recoding of the unnatural amino acid with the aaRS and mutation of the same table line; class symbols
Source text: Specific details are shown in Table 1 below, where “wt” represents the wild-type aminoacyl-tRNA synthetase, “mutation sites” indicate the positions and types of mutations related to specific unnatural amino acid binding on the wild-type aminoacyl-tRNA synthetase, and “unnatural amino acid” represents the unnatural amino acid corresponding to the mutated aminoacyl-tRNA synthetase. In the unnatural amino acid encoding efficiency, “+” indicates a recoding efficiency greater than 40%, “++” greater than 60%, and “+++” greater than 80%.
Accordingly, this application compiles all amino acids reported in the literature that are recognized by orthogonal aminoacyl-tRNA synthetases in mammalian systems and evaluates their recoding efficiency using the TCG codon as an example.

How did the “Recoding rate (%)” value turn out when C=CCCCCSC[C@H](N)C(=O)O [compound 378] was run?
The value was “++ (“++” greater than 60%)”.

How did the “Recoding rate (%)” value turn out when N[C@@H](Cc1cn(Cc2ccccc2[N+](=O)[O-])cn1)C(=O)O [compound 254] was run?
Its value is “++ (“++” greater than 60%)”.

For N[C@@H](Cc1ccc(OS(=O)(=O)F)cc1)C(=O)O [compound 287], which “Recoding rate (%)” value is on record?
Its value is “+++ (“+++” greater than 80%)”.

With CC(SCC(N)C(=O)O)c1cc2c(cc1[N+](=O)[O-])OCO2 (mixture of isomers) [compound 269] as the compound, how does the “Recoding rate (%)” value read?
Its value is “+ (“+” indicates a recoding efficiency greater than 40%)”.

How did the “Recoding rate (%)” value turn out when C#Cc1cc(C[C@H](N)C(=O)O)ccc1OS(=O)(=O)F [compound 324] was run?
Its value is “++ (“++” greater than 60%)”.

CC(OC(=O)NCSCCC(N)C(=O)O)c1cc2c(cc1[N+](=O)[O-])OCO2 (mixture of isomers) [compound 271] was tested. Which “Recoding rate (%)” value did it give?
Its value is “+ (“+” indicates a recoding efficiency greater than 40%)”.

With N[C@@H](Cc1ccc(CC(=O)O)cc1)C(=O)O [compound 357] as the compound, how does the “Recoding rate (%)” value read?
The value was “++ (“++” greater than 60%)”.

CCCCCCCC#Cc1ccc(C[C@H](N)C(=O)O)cc1 [compound 313] was tested. Which “Recoding rate (%)” value did it give?
The value was “+ (“+” indicates a recoding efficiency greater than 40%)”.

For N[C@@H](Cc1ccc(Oc2ccc(O)cc2)cc1)C(=O)O [compound 231], which “Recoding rate (%)” value is on record?
The value was “++ (“++” greater than 60%)”.

With N[C@@H](Cc1ccc(C(=O)c2cccc(F)c2)cc1)C(=O)O [compound 340] as the compound, how does the “Recoding rate (%)” value read?
The value was “++ (“++” greater than 60%)”.

With N[C@@H](Cc1ccc(C(=O)c2ccc(F)cc2)cc1)C(=O)O [compound 342] as the compound, how does the “Recoding rate (%)” value read?
The value was “++ (“++” greater than 60%)”.

With N[C@@H](Cc1ccc(OCCCl)cc1)C(=O)O [compound 364] as the compound, how does the “Recoding rate (%)” value read?
The value was “++ (“++” greater than 60%)”.

How did the “Recoding rate (%)” value turn out when C=CCSC[C@H](N)C(=O)O [compound 280] was run?
Its value is “+ (“+” indicates a recoding efficiency greater than 40%)”.

For C=CCC(=O)Nc1ccc(C[C@H](N)C(=O)O)cc1 [compound 354], which “Recoding rate (%)” value is on record?
The value was “+++ (“+++” greater than 80%)”.

Which “Recoding rate (%)” value does the source give for COc1cccc2c(C[C@H](N)C(=O)O)c[nH]c12 [compound 303] here?
Its value is “+++ (“+++” greater than 80%)”.

For N[C@@H](Cc1cccc(N2CCCC2)c1)C(=O)O [compound 289], which “Recoding rate (%)” value is on record?
The value was “++ (“++” greater than 60%)”.

Which “Recoding rate (%)” value does the source give for [N-]=[N+]=NCCC(=O)Nc1ccc(C[C@H](N)C(=O)O)cc1 [compound 350] here?
The value was “+++ (“+++” greater than 80%)”.

N[C@@H](Cc1c[nH]c2c3c(ccc12)OCC3)C(=O)O [compound 285] was tested. Which “Recoding rate (%)” value did it give?
Its value is “++ (“++” greater than 60%)”.

With N[C@@H](Cc1ccc(C(=O)CF)cc1)C(=O)O [compound 358] as the compound, how does the “Recoding rate (%)” value read?
The value was “+++ (“+++” greater than 80%)”.

C#CCOc1ccc2[nH]cc(C[C@H](N)C(=O)O)c2c1 [compound 415] was tested. Which “Recoding rate (%)” value did it give?
The value was “+ (“+” indicates a recoding efficiency greater than 40%)”.

For N[C@@H](Cc1c[nH]c2ccc(Br)cc12)C(=O)O [compound 414], which “Recoding rate (%)” value is on record?
The value was “+ (“+” indicates a recoding efficiency greater than 40%)”.

For CC#CCOc1ccc(C[C@H](N)C(=O)O)cc1 [compound 239], which “Recoding rate (%)” value is on record?
The value was “++ (“++” greater than 60%)”.

With C=CCCC[C@H](N)C(=O)O [compound 406] as the compound, how does the “Recoding rate (%)” value read?
The value was “+++ (“+++” greater than 80%)”.

N[C@@H](Cc1ccc(C#CCCCCCBr)cc1)C(=O)O [compound 317] was tested. Which “Recoding rate (%)” value did it give?
Its value is “+ (“+” indicates a recoding efficiency greater than 40%)”.

Which “Recoding rate (%)” value does the source give for C#CCCC(=O)Nc1ccc(C[C@H](N)C(=O)O)cc1 [compound 351] here?
The value was “+++ (“+++” greater than 80%)”.

Which “Recoding rate (%)” value does the source give for N[C@@H](Cc1ccc(C#CCCCBr)cc1)C(=O)O [compound 316] here?
Its value is “++ (“++” greater than 60%)”.

For N[C@@H](Cc1ccc(C#CCc2ccccc2)cc1)C(=O)O [compound 318], which “Recoding rate (%)” value is on record?
The value was “+++ (“+++” greater than 80%)”.

With CCOc1cc(COC[C@H](N)C(=O)O)c([N+](=O)[O-])cc1OCC [compound 402] as the compound, how does the “Recoding rate (%)” value read?
The value was “+++ (“+++” greater than 80%)”.

For [N-]=[N+]=NCCCSC[C@H](N)C(=O)O [compound 387], which “Recoding rate (%)” value is on record?
Its value is “++ (“++” greater than 60%)”.

How did the “Recoding rate (%)” value turn out when N[C@@H](Cc1ccc(C(=O)c2ccc(C(F)(F)F)cc2)cc1)C(=O)O [compound 345] was run?
The value was “++ (“++” greater than 60%)”.

N[C@@H](Cc1ccc2c(c1)OCO2)C(=O)O [compound 248] was tested. Which “Recoding rate (%)” value did it give?
The value was “+ (“+” indicates a recoding efficiency greater than 40%)”.

N[C@@H](CCSCNC(=O)Cc1ccccc1)C(=O)O [compound 274] was tested. Which “Recoding rate (%)” value did it give?
Its value is “++ (“++” greater than 60%)”.

With CC(OC(=O)CC(N)C(=O)O)c1ccccc1[N+](=O)[O-] (mixture of isomers) [compound 262] as the compound, how does the “Recoding rate (%)” value read?
The value was “++ (“++” greater than 60%)”.

How did the “Recoding rate (%)” value turn out when [N-]=[N+]=Nc1ccc2[nH]cc(C[C@H](N)C(=O)O)c2c1 [compound 416] was run?
The value was “+ (“+” indicates a recoding efficiency greater than 40%)”.

With N[C@@H](CCCNC(=O)NCc1ccccc1[N+](=O)[O-])C(=O)O [compound 375] as the compound, how does the “Recoding rate (%)” value read?
Its value is “++ (“++” greater than 60%)”.

Which “Recoding rate (%)” value does the source give for CCCCC#Cc1ccc(C[C@H](N)C(=O)O)cc1 [compound 310] here?
The value was “+++ (“+++” greater than 80%)”.

For N[C@@H](Cc1ccc(C#CCCC2CCCC2)cc1)C(=O)O [compound 304], which “Recoding rate (%)” value is on record?
The value was “++ (“++” greater than 60%)”.

How did the “Recoding rate (%)” value turn out when C#CCn1cc(C[C@H](N)C(=O)O)c2ccccc21 [compound 326] was run?
The value was “++ (“++” greater than 60%)”.

N[C@@H](Cc1ccc(C#CCCCc2ccccc2)cc1)C(=O)O [compound 320] was tested. Which “Recoding rate (%)” value did it give?
Its value is “++ (“++” greater than 60%)”.

same assay, conditions: TCG codon recoding of the unnatural amino acid with the aaRS and mutation of the same table line; numeric values

With C=CCOc1ccc(C[C@H](N)C(=O)O)cc1 [compound 241] as the compound, how does the “Recoding rate (%)” value read?
Its value is 83%.

For CCCSC(=O)CCC(=O)NCCCC[C@H](N)C(=O)O [compound 283], which “Recoding rate (%)” value is on record?
Its value is 55%.

Which “Recoding rate (%)” value does the source give for N[C@@H](Cc1ccc(B(O)O)cc1)C(=O)O [compound 362] here?
Its value is 66%.

Which “Recoding rate (%)” value does the source give for CCCCCCC[C@H](N)C(=O)O [compound 397] here?
Its value is 92%.

How did the “Recoding rate (%)” value turn out when Cc1ccc2[nH]cc(C[C@H](N)C(=O)O)c2c1 [compound 412] was run?
Its value is 37%.

For N[C@@H](Cc1c[nH]c2cc(Cl)ccc12)C(=O)O [compound 291], which “Recoding rate (%)” value is on record?
Its value is 73%.

COc1ccc2c(C[C@H](N)C(=O)O)c[nH]c2c1 [compound 294] was tested. Which “Recoding rate (%)” value did it give?
The value was 63%.

N[C@@H](Cc1cccs1)C(=O)O [compound 258] was tested. Which “Recoding rate (%)” value did it give?
Its value is 72%.

C=CCCCC[C@H](N)C(=O)O [compound 407] was tested. Which “Recoding rate (%)” value did it give?
Its value is 81%.

With N#Cc1cccc(C[C@H](N)C(=O)O)c1 [compound 306] as the compound, how does the “Recoding rate (%)” value read?
The value was 75%.

N[C@@H](Cc1c[nH]c2c(Cl)cccc12)C(=O)O [compound 301] was tested. Which “Recoding rate (%)” value did it give?
Its value is 71%.

With COc1ccc(C[C@H](N)C(=O)O)cc1 [compound 308] as the compound, how does the “Recoding rate (%)” value read?
The value was 68%.

For N[C@@H](Cc1ccc(C(=O)c2ccccc2)cc1)C(=O)O [compound 346], which “Recoding rate (%)” value is on record?
Its value is 74%.

For N[C@@H](Cc1ccc(OS(=O)(=O)F)cc1)C(=O)O [compound 372], which “Recoding rate (%)” value is on record?
The value was 70%.

With Cn1cc(C[C@H](N)C(=O)O)c2ccccc21 [compound 309] as the compound, how does the “Recoding rate (%)” value read?
The value was 63%.

How did the “Recoding rate (%)” value turn out when N#Cc1ccc2c(C[C@H](N)C(=O)O)c[nH]c2c1 [compound 293] was run?
The value was 84%.

N[C@@H](Cc1ccc(OS(=O)(=O)O)cc1)C(=O)O [compound 335] was tested. Which “Recoding rate (%)” value did it give?
The value was 85%.

How did the “Recoding rate (%)” value turn out when N[C@@H](Cc1ccc(O)c(O)c1)C(=O)O [compound 323] was run?
The value was 48%.

How did the “Recoding rate (%)” value turn out when N#Cc1cccc2c(C[C@H](N)C(=O)O)c[nH]c12 [compound 302] was run?
The value was 69%.

With N[C@@H](Cc1ccc(O)c(I)c1)C(=O)O [compound 371] as the compound, how does the “Recoding rate (%)” value read?
Its value is 73%.

Which “Recoding rate (%)” value does the source give for N[C@@H](Cc1c[nH]c2cccc(F)c12)C(=O)O [compound 418] here?
The value was 82%.

Which “Recoding rate (%)” value does the source give for N[C@@H](Cc1c[nH]c2cc(Br)ccc12)C(=O)O [compound 292] here?
Its value is 73%.

For COc1ccc(C[C@H](N)C(=O)O)cc1 [compound 332], which “Recoding rate (%)” value is on record?
Its value is 73%.

With N#Cc1ccc(C[C@H](N)C(=O)O)cc1 [compound 330] as the compound, how does the “Recoding rate (%)” value read?
The value was 45%.

Which “Recoding rate (%)” value does the source give for N[C@@H](Cc1ccsc1)C(=O)O [compound 256] here?
The value was 64%.

For CCCSC(=O)CCCC(=O)NCCCC[C@H](N)C(=O)O [compound 284], which “Recoding rate (%)” value is on record?
The value was 57%.

CCOc1cc(C[Se]CC(N)C(=O)O)c([N+](=O)[O-])cc1OCC (stereo not drawn) [compound 404] was tested. Which “Recoding rate (%)” value did it give?
Its value is 59%.

N[C@@H](Cc1cc(F)c(F)cc1F)C(=O)O [compound 229] was tested. Which “Recoding rate (%)” value did it give?
Its value is 83%.

Which “Recoding rate (%)” value does the source give for N[C@@H](Cc1ccc(C(=O)c2ccccc2)cc1)C(=O)O [compound 339] here?
The value was 68%.

Which “Recoding rate (%)” value does the source give for CCCCCCCC[C@H](N)C(=O)O [compound 398] here?
Its value is 85%.

With [N-]=[N+]=NCC(=O)Nc1ccc(C[C@H](N)C(=O)O)cc1 [compound 349] as the compound, how does the “Recoding rate (%)” value read?
The value was 84%.

N[C@@H](Cc1cccnc1)C(=O)O [compound 247] was tested. Which “Recoding rate (%)” value did it give?
The value was 83%.

With Cc1ccc2c(C[C@H](N)C(=O)O)c[nH]c2c1 [compound 290] as the compound, how does the “Recoding rate (%)” value read?
Its value is 76%.
